Measured values taken from the kinase profiling compilation of Christmann-Franck et al. (2016).
“And” between values parts separate entries of the source, which are not always exact repeats. Identical values can stand only once.

Legend:
Experiment in all cases: radiometric filter-binding kinase assay, Kinase HotSpot
Conditions in all cases: compound 0.5 µM; ATP 10 µM
GRK4 (human) = GRK4 (human) (UniProt P32298)
FER (human) = FER (human) (UniProt P16591)
MYLK (human) = MYLK (human) (UniProt Q15746)
PLK1 (human) = PLK1 (human) (UniProt P53350)
PKN1 (human) = PKN1 (human) (UniProt Q16512)
STK10 (human) = STK10 (human) (UniProt O94804)
Chain of STK10 (human) (O94804 whole entry, looked up): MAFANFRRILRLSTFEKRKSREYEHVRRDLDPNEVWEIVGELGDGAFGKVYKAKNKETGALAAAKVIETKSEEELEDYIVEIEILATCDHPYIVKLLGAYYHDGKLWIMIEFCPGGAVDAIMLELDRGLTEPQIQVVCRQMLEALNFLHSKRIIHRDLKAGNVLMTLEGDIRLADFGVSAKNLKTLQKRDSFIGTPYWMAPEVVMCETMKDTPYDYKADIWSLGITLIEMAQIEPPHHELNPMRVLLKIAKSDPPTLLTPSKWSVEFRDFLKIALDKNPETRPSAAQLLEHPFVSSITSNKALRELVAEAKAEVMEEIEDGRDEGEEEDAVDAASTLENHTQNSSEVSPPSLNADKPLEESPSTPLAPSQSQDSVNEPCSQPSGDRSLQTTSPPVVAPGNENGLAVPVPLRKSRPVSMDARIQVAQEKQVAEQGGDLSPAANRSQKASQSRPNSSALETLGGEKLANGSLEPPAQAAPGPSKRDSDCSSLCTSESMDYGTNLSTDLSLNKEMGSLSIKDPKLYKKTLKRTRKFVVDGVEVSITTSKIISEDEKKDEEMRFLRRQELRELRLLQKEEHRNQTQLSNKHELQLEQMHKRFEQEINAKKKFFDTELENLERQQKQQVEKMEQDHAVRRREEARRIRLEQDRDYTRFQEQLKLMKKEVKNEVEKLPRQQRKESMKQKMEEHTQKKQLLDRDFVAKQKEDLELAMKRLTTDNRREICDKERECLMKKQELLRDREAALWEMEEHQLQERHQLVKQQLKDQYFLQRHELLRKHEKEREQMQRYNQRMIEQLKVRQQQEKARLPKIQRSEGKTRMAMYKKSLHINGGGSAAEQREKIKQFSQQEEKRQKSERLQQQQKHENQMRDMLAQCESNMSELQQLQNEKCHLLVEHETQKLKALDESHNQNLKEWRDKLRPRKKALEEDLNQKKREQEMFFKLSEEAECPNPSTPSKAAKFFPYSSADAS

RPS6KA2 KD1 KD2 (human) = RPS6KA2 KD1 KD2 (human) (UniProt Q15349)
SGK2 (human) = SGK2 (human) (UniProt Q9HBY8)
EPHB4 (human) = EPHB4 (human) (UniProt P54760)
DMPK (human) = DMPK (human) (UniProt Q09013)
BMX (human) = BMX (human) (UniProt P51813)
MAPK12 (human) = MAPK12 (human) (UniProt P53778)
CHEK2 (human) = CHEK2 (human) (UniProt O96017)
CDK6 CCND3 (human) = CDK6 CCND3 (human) (UniProt P30281+Q00534)
FGFR4 (human) = FGFR4 (human) (UniProt P22455)
MST1R (human) = MST1R (human) (UniProt Q04912)
DYRK2 (human) = DYRK2 (human) (UniProt Q92630)
HIPK1 (human) = HIPK1 (human) (UniProt Q86Z02)
Chain of HIPK1 (human) (Q86Z02 whole entry, looked up): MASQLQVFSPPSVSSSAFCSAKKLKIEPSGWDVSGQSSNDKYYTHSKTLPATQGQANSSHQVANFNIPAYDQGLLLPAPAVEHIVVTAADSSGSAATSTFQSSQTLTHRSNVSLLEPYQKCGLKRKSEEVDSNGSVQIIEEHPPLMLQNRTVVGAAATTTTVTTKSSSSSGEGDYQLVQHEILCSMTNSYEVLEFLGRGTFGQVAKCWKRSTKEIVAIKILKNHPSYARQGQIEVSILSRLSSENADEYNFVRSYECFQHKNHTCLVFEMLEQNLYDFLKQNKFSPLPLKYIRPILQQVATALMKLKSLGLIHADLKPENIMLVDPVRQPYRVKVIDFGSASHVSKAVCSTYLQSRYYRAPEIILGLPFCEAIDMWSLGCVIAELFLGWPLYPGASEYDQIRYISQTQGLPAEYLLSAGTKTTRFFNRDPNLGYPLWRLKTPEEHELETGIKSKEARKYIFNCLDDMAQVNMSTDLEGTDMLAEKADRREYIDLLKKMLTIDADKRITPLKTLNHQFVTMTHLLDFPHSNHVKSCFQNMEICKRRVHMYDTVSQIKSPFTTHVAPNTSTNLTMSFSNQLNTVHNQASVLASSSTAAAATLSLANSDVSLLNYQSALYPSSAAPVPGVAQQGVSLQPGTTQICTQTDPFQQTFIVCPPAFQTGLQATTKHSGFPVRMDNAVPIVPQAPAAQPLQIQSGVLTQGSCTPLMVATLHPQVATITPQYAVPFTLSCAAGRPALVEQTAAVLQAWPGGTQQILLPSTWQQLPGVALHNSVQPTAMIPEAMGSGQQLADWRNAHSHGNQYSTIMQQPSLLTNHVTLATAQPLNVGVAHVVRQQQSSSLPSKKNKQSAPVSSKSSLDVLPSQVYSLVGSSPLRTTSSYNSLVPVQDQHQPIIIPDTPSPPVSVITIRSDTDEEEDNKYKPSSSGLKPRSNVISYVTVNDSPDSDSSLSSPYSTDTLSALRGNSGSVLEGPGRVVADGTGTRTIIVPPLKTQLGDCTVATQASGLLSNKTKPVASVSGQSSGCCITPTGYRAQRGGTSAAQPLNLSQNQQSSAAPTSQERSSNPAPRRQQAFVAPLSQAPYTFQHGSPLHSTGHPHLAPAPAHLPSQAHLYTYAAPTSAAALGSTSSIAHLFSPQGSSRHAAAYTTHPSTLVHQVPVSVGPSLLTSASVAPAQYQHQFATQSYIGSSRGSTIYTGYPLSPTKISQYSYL

MAP3K8 (human) = MAP3K8 (human) (UniProt P41279)
IRAK4 (human) = IRAK4 (human) (UniProt Q9NWZ3)
Chain of IRAK4 (human) (Q9NWZ3 whole entry, looked up): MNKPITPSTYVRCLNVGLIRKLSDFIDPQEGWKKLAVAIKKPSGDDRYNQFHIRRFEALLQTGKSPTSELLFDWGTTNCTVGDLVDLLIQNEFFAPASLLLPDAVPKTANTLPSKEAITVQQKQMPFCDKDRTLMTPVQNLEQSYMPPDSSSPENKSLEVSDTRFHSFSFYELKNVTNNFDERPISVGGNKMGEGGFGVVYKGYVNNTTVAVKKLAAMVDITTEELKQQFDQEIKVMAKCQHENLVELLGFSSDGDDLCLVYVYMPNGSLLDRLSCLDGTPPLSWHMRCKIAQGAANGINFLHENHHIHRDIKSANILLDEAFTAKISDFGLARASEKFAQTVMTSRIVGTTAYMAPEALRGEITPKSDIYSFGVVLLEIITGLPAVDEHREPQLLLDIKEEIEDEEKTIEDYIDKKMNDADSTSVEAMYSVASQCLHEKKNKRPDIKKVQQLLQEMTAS

MARK2 (human) = MARK2 (human) (UniProt Q7KZI7)
Chain of MARK2 (human) (Q7KZI7 whole entry, looked up): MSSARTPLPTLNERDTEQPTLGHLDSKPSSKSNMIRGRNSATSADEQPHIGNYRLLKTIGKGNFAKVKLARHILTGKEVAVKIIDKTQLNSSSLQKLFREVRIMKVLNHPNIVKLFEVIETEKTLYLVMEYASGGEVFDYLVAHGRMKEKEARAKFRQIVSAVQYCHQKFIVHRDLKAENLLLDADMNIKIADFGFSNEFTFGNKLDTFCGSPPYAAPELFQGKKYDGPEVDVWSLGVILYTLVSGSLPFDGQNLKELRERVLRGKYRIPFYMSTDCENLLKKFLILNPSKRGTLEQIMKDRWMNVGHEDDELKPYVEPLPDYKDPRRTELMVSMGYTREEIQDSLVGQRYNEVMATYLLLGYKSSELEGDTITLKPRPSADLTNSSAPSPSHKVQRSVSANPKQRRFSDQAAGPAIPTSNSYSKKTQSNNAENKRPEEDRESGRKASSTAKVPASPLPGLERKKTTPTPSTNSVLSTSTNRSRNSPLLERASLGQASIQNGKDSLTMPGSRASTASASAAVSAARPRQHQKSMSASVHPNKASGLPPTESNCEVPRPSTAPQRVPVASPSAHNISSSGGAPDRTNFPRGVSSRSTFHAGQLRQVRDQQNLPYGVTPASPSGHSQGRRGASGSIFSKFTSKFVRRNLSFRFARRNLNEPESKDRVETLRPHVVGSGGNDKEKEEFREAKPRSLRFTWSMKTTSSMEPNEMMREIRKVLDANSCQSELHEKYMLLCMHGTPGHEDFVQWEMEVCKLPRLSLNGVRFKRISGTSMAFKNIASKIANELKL

RPS6KA4 KD2 (human) = RPS6KA4 KD2 (human) (UniProt O75676)
Chain of RPS6KA4 KD2 (human) (O75676 whole entry, looked up): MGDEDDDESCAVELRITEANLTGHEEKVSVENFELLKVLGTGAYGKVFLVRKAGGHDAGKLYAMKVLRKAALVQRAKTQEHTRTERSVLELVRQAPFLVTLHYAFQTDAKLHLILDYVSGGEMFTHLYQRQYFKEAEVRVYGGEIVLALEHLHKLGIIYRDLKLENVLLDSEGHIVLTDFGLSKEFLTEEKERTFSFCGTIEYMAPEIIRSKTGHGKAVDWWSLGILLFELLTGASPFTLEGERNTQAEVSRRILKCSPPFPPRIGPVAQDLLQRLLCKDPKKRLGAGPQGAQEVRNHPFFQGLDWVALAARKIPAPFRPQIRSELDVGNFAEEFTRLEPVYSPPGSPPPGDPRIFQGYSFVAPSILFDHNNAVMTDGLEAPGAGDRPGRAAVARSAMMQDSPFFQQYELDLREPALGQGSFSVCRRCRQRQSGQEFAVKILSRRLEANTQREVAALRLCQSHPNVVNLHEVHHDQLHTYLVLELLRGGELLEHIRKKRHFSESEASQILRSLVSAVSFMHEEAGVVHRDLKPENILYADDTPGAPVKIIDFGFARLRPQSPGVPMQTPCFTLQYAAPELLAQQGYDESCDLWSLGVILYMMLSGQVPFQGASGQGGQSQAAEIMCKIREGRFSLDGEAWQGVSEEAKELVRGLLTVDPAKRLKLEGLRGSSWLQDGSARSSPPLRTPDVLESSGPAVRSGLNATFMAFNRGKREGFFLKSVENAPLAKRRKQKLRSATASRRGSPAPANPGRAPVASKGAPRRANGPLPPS

EPHA5 (human) = EPHA5 (human) (UniProt P54756)
DAPK3 (human) = DAPK3 (human) (UniProt O43293)
LYN (human) = LYN (human) (UniProt P07948)
CSK (human) = CSK (human) (UniProt P41240)
NEK3 (human) = NEK3 (human) (UniProt P51956)
PRKG1 (human) = PRKG1 (human) (UniProt Q13976)
PNCK (human) = PNCK (human) (UniProt Q6P2M8)
FGFR2 (human) = FGFR2 (human) (UniProt P21802)
GSK3B (human) = GSK3B (human) (UniProt P49841)
STK3 (human) = STK3 (human) (UniProt Q13188)
SRC (human) = SRC (human) (UniProt P12931)
BTK (human) = BTK (human) (UniProt Q06187)
GRK7 (human) = GRK7 (human) (UniProt Q8WTQ7)
Chain of GRK7 (human) (Q8WTQ7 whole entry, looked up): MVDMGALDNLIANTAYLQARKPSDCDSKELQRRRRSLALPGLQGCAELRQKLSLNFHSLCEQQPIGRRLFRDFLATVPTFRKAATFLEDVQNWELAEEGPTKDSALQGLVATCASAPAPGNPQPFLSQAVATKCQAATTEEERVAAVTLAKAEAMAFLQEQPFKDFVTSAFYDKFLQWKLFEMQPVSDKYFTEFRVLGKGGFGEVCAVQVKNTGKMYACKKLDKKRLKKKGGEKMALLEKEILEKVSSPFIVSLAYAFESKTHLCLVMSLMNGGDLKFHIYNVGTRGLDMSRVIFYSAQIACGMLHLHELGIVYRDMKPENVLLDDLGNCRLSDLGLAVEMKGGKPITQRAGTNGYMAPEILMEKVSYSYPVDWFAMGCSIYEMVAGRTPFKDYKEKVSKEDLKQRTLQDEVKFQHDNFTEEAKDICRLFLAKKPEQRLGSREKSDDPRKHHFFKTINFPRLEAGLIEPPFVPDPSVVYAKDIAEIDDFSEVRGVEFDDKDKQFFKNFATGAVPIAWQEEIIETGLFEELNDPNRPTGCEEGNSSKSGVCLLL

TYRO3 (human) = TYRO3 (human) (UniProt Q06418)
CSNK2A1 (human) = CSNK2A1 (human) (UniProt P68400)
MLTK (human) = MLTK (human) (UniProt Q9NYL2)
JAK3 JH1 JH2 (human) = JAK3 JH1 JH2 (human) (UniProt P52333)
AURKA (human) = AURKA (human) (UniProt O14965)

| SMILES | residual activity (GRK4 (human)) | residual activity (FER (human)) | residual activity (MYLK (human)) | residual activity (PLK1 (human)) | residual activity (PKN1 (human)) | residual activity (STK10 (human)) | residual activity (RPS6KA2 KD1 KD2 (human)) | residual activity (SGK2 (human)) | residual activity (EPHB4 (human)) | residual activity (BMX (human)) | residual activity (MAPK12 (human)) | residual activity (CHEK2 (human)) | residual activity (CDK6 CCND3 (human)) | residual activity (FGFR4 (human)) | residual activity (MST1R (human)) | residual activity (DYRK2 (human)) | residual activity (HIPK1 (human)) | residual activity (MAP3K8 (human)) | residual activity (IRAK4 (human)) | residual activity (MARK2 (human)) | also measured |
| --- | --- | --- | --- | --- | --- | --- | --- | --- | --- | --- | --- | --- | --- | --- | --- | --- | --- | --- | --- | --- | --- |
| O=C(Nc1cccc(Nc2nccc(Nc3cccc(C(F)(F)F)c3)n2)c1)C1CC1 | 96.9% | 93% | 90% | 91.7% | 93.3% | 90.1% | 101% | 118% | 91.3% | 83.6% | 99.7% | 107% | 98.5% | 101% | 92.6% | 106% | 98.7% | 111% | 146% | 97% | residual activity (DMPK (human)): 101%; residual activity (RPS6KA4 KD2 (human)): 104%; residual activity (EPHA5 (human)): 96.2%; residual activity (DAPK3 (human)): 94.3%; residual activity (LYN (human)): 91.9% and 99.9%; residual activity (CSK (human)): 97.4%; residual activity (NEK3 (human)): 95.8%; residual activity (PRKG1 (human)): 97.6% and 99.3%; residual activity (PNCK (human)): 106%; residual activity (FGFR2 (human)): 103%; residual activity (GSK3B (human)): 101%; residual activity (STK3 (human)): 96%; residual activity (SRC (human)): 64.5%; residual activity (BTK (human)): 83.7%; residual activity (GRK7 (human)): 101%; residual activity (TYRO3 (human)): 93.8%; residual activity (CSNK2A1 (human)): 94.1%; residual activity (MLTK (human)): 110%; residual activity (JAK3 JH1 JH2 (human)): 109% |
| CC#CC(=O)Nc1cc2c(Nc3ccc(F)c(Cl)c3)ncnc2cn1 | 104% | 98.2% | 98.8% | 99.3% | 101% | 72.6% | 105% | 98.3% | 83.4% | 2.54% | 99.4% | 98.8% | 103% | 102% | 104% | 91.3% | 108% | 94.2% | 102% | 105% | residual activity (AURKA (human)): 96.5%; residual activity (DMPK (human)): 104%; residual activity (RPS6KA4 KD2 (human)): 100%; residual activity (EPHA5 (human)): 101%; residual activity (DAPK3 (human)): 97.8%; residual activity (LYN (human)): 88.3% and 96.1%; residual activity (CSK (human)): 100%; residual activity (NEK3 (human)): 76.2%; residual activity (PRKG1 (human)): 91.7% and 97.6%; residual activity (PNCK (human)): 99.4%; residual activity (FGFR2 (human)): 101%; residual activity (GSK3B (human)): 93%; residual activity (STK3 (human)): 106%; residual activity (SRC (human)): 97.7%; residual activity (BTK (human)): 2.88%; residual activity (GRK7 (human)): 106%; residual activity (TYRO3 (human)): 100%; residual activity (CSNK2A1 (human)): 90.9%; residual activity (MLTK (human)): 85.8%; residual activity (JAK3 JH1 JH2 (human)): -0.181% |
| O=S(=O)(c1cccc2cnccc12)N1CCCNCC1 | 104% | 103% | 97.4% | 103% | 40.5% | 103% | 79.9% | 91.9% | 107% | 104% | 99.3% | 98.9% | 95.8% | 82.8% | 92.7% | 97.9% | 96.8% | 91.8% | 108% | 108% | residual activity (AURKA (human)): 101%; residual activity (RPS6KA4 KD2 (human)): 81.8%; residual activity (EPHA5 (human)): 90.5%; residual activity (DAPK3 (human)): 93%; residual activity (LYN (human)): 102% and 106%; residual activity (CSK (human)): 87.9%; residual activity (PRKG1 (human)): 79.6% and 87.7%; residual activity (PNCK (human)): 91.6%; residual activity (FGFR2 (human)): 97.6%; residual activity (GSK3B (human)): 102%; residual activity (STK3 (human)): 90%; residual activity (SRC (human)): 85.3%; residual activity (BTK (human)): 96.5%; residual activity (GRK7 (human)): 114%; residual activity (TYRO3 (human)): 87.9%; residual activity (CSNK2A1 (human)): 94.9%; residual activity (MLTK (human)): 101%; residual activity (JAK3 JH1 JH2 (human)): 120% |
